Assay results reported in US9815841B2, “Compounds” (GLAXOSMITHKLINE INTELLECTUAL PROPERTY DEVELOPMENT LIMITED, priority 2014, dated 2017).

Target: T1, recombinant full length LRRK2 over-expressed in SH-SY5Y cells (Homo sapiens, UniProt Q5S007)
T1 construct: A BacMam virus expressing full length recombinant LRRK2 was purchased from Invitrogen; host or cells: SH-SY5Y human neuroblastoma cells transduced with BacMam LRRK2 virus
Experiment: Recombinant cellular LRRK2 AlphaScreen assay (LRRK2 Ser935 phosphorylation)
Type: cell-based
Details: SH-SY5Y cells with BacMam LRRK2, 60 minutes compound incubation, read-out: recombinant cellcular LRRK2 alphaScreen assay (pIC50) (converted)
Method: Recombinant Cellular LRRK2 AlphaScreen Assay
A BacMam virus expressing full length recombinant LRRK2 was purchased from Invitrogen and amplified by inoculation of SF-9 cells at MOI 0.3 for 4-5 days in Sf-900 III SFM medium supplemented with 3% fetal bovine serum. Infected cell cultures were then centrifuged at 2000 g for 20 minutes, viral supernatant titer determined by anti-gp64 plaque assay and stored at 4° C.
Affinity-purified anti-phospho LRRK2 Ser935 sheep polyclonal antibody (Dzamko et al., 2010, Biochem. J. 430: 405-413) was biotinylated by standard methods (PerkinElmer). Anti-LRRK2 rabbit polyclonal antibody was purchased from Novus Biologicals. AlphaScreen Protein A IgG Kit (including acceptor and donor beads) was purchased from Perkin Elmer.
SH-SY5Y cells were grown in DMEM/F12 medium with 10% dialysed fetal bovine serum and harvested by treatment with 0.5% trypsin-EDTA for 5 minutes at […] followed by centrifugation at 1000 rpm for 4 minutes. The cell pellet was resuspended in Opti-MEM reduced serum media (Invitrogen) at 200,000 cells/ml and mixed with the BacMam LRRK2 virus at MOI=50. 50 μl cell solutions were then dispensed to each well of a 384-well plate and incubated at 37° C., 5% CO2 for 24 hours.
Serial dilutions of test compounds were prepared in Opti-MEM reduced serum media (Invitrogen) and 5.6 ul transferred from compound plate to cell assay plate to achieve a top final assay concentration of 10 uM. DMSO was used in certain wells as controls. Cells were incubated at 37° C., 5% CO2 for 60 minutes. The medium was then removed and cells lysed by addition of 20 ul cell lysis buffer (Cell Signaling Technology) and incubation at 4° C. for 20 minutes. 10 ul of antibody/acceptor bead mix [(1/1000 biotinylated-pS935 LRRK2 antibody, 1/1000 total-LRRK2 antibody, 1/100 Acceptor beads in AlphaScreen detection buffer (25 mM Hepes (pH 7.4), 0.5% Triton X-100, 1 mg/ml Dextran 500 and 0.1% BSA)] was then added to each well and plates incubated for 2 hours at ambient temperature in the dark. 10 μl of donor beads solution (1/33.3 donor beads in AlphaScreen detection buffer) was then added to each well. Following incubation for a further 2 hours at ambient temperature in the dark, plates were read on an EnVision™ plate reader at emission 520-620 nm with excitation 680 nm. Dose response curve data was based on sigmoidal dose-response model.

T1 sequence (Q5S007 whole entry): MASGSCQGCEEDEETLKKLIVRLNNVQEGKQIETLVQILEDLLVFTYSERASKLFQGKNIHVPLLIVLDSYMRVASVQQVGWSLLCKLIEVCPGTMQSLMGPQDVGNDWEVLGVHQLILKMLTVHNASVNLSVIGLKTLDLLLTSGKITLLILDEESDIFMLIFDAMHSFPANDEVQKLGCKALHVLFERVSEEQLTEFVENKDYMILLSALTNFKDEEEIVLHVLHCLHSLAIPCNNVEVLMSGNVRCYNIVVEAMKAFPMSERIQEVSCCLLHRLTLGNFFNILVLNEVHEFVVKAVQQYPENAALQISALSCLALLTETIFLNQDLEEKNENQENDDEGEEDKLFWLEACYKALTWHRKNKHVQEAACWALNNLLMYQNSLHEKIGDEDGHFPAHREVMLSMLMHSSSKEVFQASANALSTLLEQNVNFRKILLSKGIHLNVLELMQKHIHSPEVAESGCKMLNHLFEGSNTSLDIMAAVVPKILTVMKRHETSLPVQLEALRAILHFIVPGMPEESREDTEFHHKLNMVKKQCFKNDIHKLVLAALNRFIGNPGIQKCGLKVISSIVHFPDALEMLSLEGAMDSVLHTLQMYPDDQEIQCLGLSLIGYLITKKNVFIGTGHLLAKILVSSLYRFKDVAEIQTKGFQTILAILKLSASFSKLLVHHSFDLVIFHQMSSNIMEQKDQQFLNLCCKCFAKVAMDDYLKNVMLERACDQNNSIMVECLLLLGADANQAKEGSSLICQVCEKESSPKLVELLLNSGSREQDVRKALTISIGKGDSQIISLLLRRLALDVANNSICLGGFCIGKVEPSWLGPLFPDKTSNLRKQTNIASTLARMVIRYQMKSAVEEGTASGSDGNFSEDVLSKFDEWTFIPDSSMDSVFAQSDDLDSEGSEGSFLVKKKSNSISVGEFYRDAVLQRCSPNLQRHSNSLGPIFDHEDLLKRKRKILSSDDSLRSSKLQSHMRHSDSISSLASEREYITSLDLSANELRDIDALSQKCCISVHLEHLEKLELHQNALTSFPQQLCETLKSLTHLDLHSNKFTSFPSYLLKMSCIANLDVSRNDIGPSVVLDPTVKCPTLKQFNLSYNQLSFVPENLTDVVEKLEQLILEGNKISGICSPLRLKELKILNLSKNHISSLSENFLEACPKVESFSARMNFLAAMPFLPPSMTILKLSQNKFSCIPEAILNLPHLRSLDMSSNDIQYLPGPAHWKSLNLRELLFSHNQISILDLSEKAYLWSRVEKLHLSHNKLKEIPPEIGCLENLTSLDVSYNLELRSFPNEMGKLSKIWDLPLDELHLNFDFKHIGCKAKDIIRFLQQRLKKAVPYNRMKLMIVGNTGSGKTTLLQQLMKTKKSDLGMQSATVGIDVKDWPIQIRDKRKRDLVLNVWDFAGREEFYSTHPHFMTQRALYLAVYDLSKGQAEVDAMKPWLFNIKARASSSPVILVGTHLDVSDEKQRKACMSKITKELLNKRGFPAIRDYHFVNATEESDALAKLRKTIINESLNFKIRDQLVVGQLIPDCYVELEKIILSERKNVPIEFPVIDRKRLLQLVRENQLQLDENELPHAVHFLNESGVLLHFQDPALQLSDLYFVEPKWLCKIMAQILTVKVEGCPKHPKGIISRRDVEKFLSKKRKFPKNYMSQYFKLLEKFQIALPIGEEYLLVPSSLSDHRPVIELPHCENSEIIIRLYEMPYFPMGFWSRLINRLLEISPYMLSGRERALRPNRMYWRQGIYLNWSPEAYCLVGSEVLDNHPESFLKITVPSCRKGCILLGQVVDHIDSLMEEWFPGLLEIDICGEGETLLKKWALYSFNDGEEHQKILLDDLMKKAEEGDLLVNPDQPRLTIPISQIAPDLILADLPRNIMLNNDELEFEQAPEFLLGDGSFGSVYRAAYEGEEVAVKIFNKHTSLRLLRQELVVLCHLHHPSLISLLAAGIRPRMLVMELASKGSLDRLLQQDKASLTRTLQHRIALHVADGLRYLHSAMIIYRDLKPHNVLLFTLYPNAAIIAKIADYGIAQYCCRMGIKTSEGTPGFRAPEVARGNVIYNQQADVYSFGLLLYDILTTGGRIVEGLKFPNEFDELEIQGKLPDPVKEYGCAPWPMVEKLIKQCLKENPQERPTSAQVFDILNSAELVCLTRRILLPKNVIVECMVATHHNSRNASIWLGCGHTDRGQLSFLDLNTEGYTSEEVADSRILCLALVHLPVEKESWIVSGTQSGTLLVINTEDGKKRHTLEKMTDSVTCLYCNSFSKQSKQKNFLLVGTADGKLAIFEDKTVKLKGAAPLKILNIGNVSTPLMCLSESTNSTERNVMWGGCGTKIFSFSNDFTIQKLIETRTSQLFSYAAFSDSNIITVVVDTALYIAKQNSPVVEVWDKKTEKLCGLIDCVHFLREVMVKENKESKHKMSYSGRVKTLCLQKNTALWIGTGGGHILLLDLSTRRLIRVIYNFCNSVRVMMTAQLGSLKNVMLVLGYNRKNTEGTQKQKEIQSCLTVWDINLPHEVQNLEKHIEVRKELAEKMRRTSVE

SMILES | IC50 [µM]
CCOc1nc(Nc2ccc(C(=O)N3CCOCC3)cc2OC)nc2[nH]cc(C#N)c12 [Example E59, 4-ethoxy-2-((2-methoxy-4-(morpholine-4-carbonyl)phenyl)amino)-7H-pyrrolo[2,3-d]pyrimidine-5-carbonitrile] | ≤ 0.1
COc1cc(C(=O)N2CCOCC2)ccc1Nc1nc(OCC2CC2)c2cc[nH]c2n1 [Example E34, (4-((4-(cyclopropylmethoxy)-7H-pyrrolo-[2,3-d]pyrimidin-2-yl)amino)-3-methoxyphenyl)(morpholino)methanone] | ≤ 0.1
CCOc1nc(Nc2ccc(C(=O)N3CCOCC3)cc2OC)nc2[nH]cc(C)c12 [Example E32, (4-((4-ethoxy-5-methyl-7H-pyrrolo-[2,3-d]pyrimidin-2-yl)amino)-3-methoxyphenyl)(morpholino)methanone] | ≤ 0.1

More lines, now with the values ahead:

IC50 [µM] | SMILES
≤ 0.1 | CCOc1nc(Nc2ccc(C(=O)N3CCOCC3)c(OC)c2)nc2[nH]ccc12 [Example E18, (4-((4-ethoxy-7H-pyrrolo-[2,3-d]-pyrimidin-2-yl)amino)-2-methoxyphenyl)(morpholino)methanone]
≤ 0.1 | COc1cc(C(=O)N2CCN(C)CC2)ccc1Nc1nc(OCC2CC2)c2cc[nH]c2n1 [Example E33, (4-((4-(cyclopropylmethoxy)-7H-pyrrolo-[2,3-d]pyrimidin-2-yl)amino)-3-methoxyphenyl)(4-methylpiperazin-1-yl) methanone]
≤ 0.1 | CCOc1nc(Nc2ccc(C(=O)N3CCN(C)CC3)cc2)nc2[nH]ccc12 [Example E15, (4-((4-ethoxy-7H-pyrrolo-[2,3-d]-pyrimidin-2-yl)amino)phenyl)(4-methylpiperazin-1-yl)methanone]
≤ 0.1 | CCOc1nc(Nc2ccc(C(=O)N3CCOC[C@H]3C)cc2OC)nc2[nH]ccc12 [Example E30, (R)-(4-((4-ethoxy-7H-pyrrolo[2,3-d]pyrimidin-2-yl)amino)-3-methoxyphenyl)(3-methylmorpholino)methanone]
